Holding throughout (assay type): in vivo
For experiment [1], the system named is ragweed (common ragweed, Ambrosia elatior). Briefly: Test A postemergence, ragweed. The note with it: visual rating after approx. 10 d, 0 to 100 scale, 0 no effect, 100 complete control. The text has this: (§1) Seeds of plant species selected from barnyardgrass (Echinochloa crus-galli), crabgrass (large crabgrass, Digitaria sanguinalis), kochia (Kochia scoparia), ragweed (common ragweed, Ambrosia elatior), morningglory (Ipomoea spp.), velvetleaf (Abutilon theophrasti), ryegrass, Italian (Italian ryegrass, Lolium multiflorum), foxtail, giant (giant foxtail, Setaria faberii), wheat (Triticum aestivum), corn (Zea mays), and pigweed (Amaranthus retroflexus), were planted into a blend of loam soil and sand and treated preemergence with a directed soil spray using test chemicals formulated in a non-phytotoxic solvent mixture which included a surfactant. At the same time, plants selected from these crop and weed species and also blackgrass (Alopecurus myosuroides), and galium (catchweed bedstraw, Galium aparine), were planted in pots containing the same blend of loam soil and sand and treated with postemergence applications of test chemicals formulated in the same manner. Plants ranged in height from 2 to 10 cm and were in the one- to two-leaf stage for the postemergence treatment. Treated plants and untreated controls were maintained in a greenhouse for approximately 10 d, after which time all treated plants were compared to untreated controls and visually evaluated for injury. Plant response ratings, summarized in Table A, are based on a 0 to 100 scale where 0 is no effect and 100 is complete control. A dash (-) response means no test result.

The subject of experiment [2] is galium (catchweed bedstraw, Galium aparine). The experiment in a line: Test A postemergence, galium. The note with it: visual rating after approx. 10 d, 0 to 100 scale, 0 no effect, 100 complete control.
Text: as §1

Experiment [3] has as its system ryegrass, Italian (Italian ryegrass, Lolium multiflorum). The experiment in a line: Test A postemergence, Italian ryegrass. The settings on record: visual rating after approx. 10 d, 0 to 100 scale, 0 no effect, 100 complete control.
Text: as §1

The subject of a further experiment is rice (Oryza sativa). Briefly: Test B flooded paddy test, rice. The note with it: 250 g ai/ha; applied to paddy water at 2-leaf stage; 13 to 15 d; scale 0 no effect to 100 complete control. The procedure:
(§2) Plant species in the flooded paddy test selected from rice (Oryza sativa), sedge, umbrella (small-flower umbrella sedge, Cyperus difformis), ducksalad (Heteranthera limosa), and barnyardgrass (Echinochloa crus-galli) were grown to the 2-leaf stage for testing. At time of treatment, test pots were flooded to 3 cm above the soil surface, treated by application of test compounds directly to the paddy water, and then maintained at that water depth for the duration of the test. Treated plants and controls were maintained in a greenhouse for 13 to 15 d, after which time all species were compared to controls and visually evaluated. Plant response ratings, summarized in Table B, are based on a scale of 0 to 100 where 0 is no effect and 100 is complete control. A dash (-) response means no test result.

Experiment [4] has as its system sedge, umbrella (small-flower umbrella sedge, Cyperus difformis). The experiment in a line: Test B flooded paddy test, umbrella sedge. The note with it: 250 g ai/ha; applied to paddy water at 2-leaf stage; 13 to 15 d; scale 0 no effect to 100 complete control. The procedure:
as §2

In experiment [5] the test system is wheat (Triticum aestivum). Briefly: Test A postemergence, wheat. The settings on record: visual rating after approx. 10 d, 0 to 100 scale, 0 no effect, 100 complete control.
Text: as §1

Experiment [6] deals with blackgrass (Alopecurus myosuroides). The experiment in a line: Test A postemergence, blackgrass. The settings on record: visual rating after approx. 10 d, 0 to 100 scale, 0 no effect, 100 complete control.
Text: as §1

Experiment [7] has as its system foxtail, giant (giant foxtail, Setaria faberii). The experiment in a line: Test A postemergence, giant foxtail. The note with it: visual rating after approx. 10 d, 0 to 100 scale, 0 no effect, 100 complete control.
Text: as §1

Experiment [8] has as its system pigweed (Amaranthus retroflexus). Briefly: Test A postemergence, pigweed. The settings on record: visual rating after approx. 10 d, 0 to 100 scale, 0 no effect, 100 complete control.
Text: as §1

A further experiment has as its system corn (Zea mays). Briefly: Test A postemergence, corn. The note with it: visual rating after approx. 10 d, 0 to 100 scale, 0 no effect, 100 complete control.
Text: as §1

The subject of experiment [9] is barnyardgrass (Echinochloa crus-galli). Briefly: Test A postemergence, barnyardgrass. The settings on record: visual rating after approx. 10 d, 0 to 100 scale, 0 no effect, 100 complete control.
Text: as §1

Experiment [10] has the same test system. The experiment in a line: Test B flooded paddy test, barnyardgrass. The note with it: 250 g ai/ha; applied to paddy water at 2-leaf stage; 13 to 15 d; scale 0 no effect to 100 complete control. The procedure: as §2
The subject of a further experiment is kochia (Kochia scoparia). Briefly: Test A postemergence, kochia. The settings on record: visual rating after approx. 10 d, 0 to 100 scale, 0 no effect, 100 complete control.
Text: as §1

Experiment [11] concerns ducksalad (Heteranthera limosa). The experiment in a line: Test B flooded paddy test, ducksalad. The note with it: 250 g ai/ha; applied to paddy water at 2-leaf stage; 13 to 15 d; scale 0 no effect to 100 complete control. The procedure: as §2

Structures are written as SMILES.

For the compound `CC1(C(=O)Nc2cccc(F)c2F)C(=O)OCC1c1ccc(F)cc1` (racemic) [Compound 22], the “Plant response rating, Ragweed” value in experiment [1] (31 g ai/ha) and in experiment [1] (125 g ai/ha) was 0 in each case. Moreover, the “Plant response rating, Galium” value turned out to be 0 in [2] (31 g ai/ha) and 20 in experiment [2] (125 g ai/ha). The “Plant response rating, Ryegrass, Italian” value in experiment [3] (31 g ai/ha) and in experiment [3] (125 g ai/ha) was 20 in each case. Further, the “Plant response rating, Flood, Rice” value with rice (Oryza sativa) amounted to 20. For the same compound, the “Plant response rating, Flood, Sedge, Umbrella” value in experiment [4] came out at 0. Also, the “Plant response rating, Wheat” value in experiment [5] (31 g ai/ha) and in experiment [5] (125 g ai/ha) was 0 throughout. The “Plant response rating, Blackgrass” value in [6] (31 g ai/ha) and in experiment [6] (125 g ai/ha) was 0 in each case. Besides, the “Plant response rating, Foxtail, Giant” value in [7] (31 g ai/ha) worked out at 30; in experiment [7] (125 g ai/ha) it was 60. For the same compound, the “Plant response rating, Pigweed” value in experiment [8] (31 g ai/ha) and in experiment [8] (125 g ai/ha) was 0 throughout. Also, the “Plant response rating, Corn” value in the experiment with corn (Zea mays) (31 g ai/ha) and with corn (Zea mays) (125 g ai/ha) was 0 in each case. Moreover, the “Plant response rating, Barnyardgrass” value in [9] (31 g ai/ha) was determined as 40; in experiment [9] (125 g ai/ha), 90. In [10], the “Plant response rating, Flood, Barnyardgrass” value was determined as 0. Besides, the “Plant response rating, Kochia” value in the experiment with kochia (Kochia scoparia) (31 g ai/ha) and in the experiment on kochia (Kochia scoparia) (125 g ai/ha) was 0 each time. Moreover, in [11], the “Plant response rating, Flood, Ducksalad” value turned out to be 0.
Regarding `CC1(C(=O)Nc2ccccc2C(F)(F)F)C(=O)OCC1c1ccc(F)cc1` (racemic) [Compound 21], the results for the “Plant response rating, Ragweed” value in [1] (125 g ai/ha) and in experiment [1] (500 g ai/ha) were 0 and 40, respectively. The “Plant response rating, Galium” value in [2] (125 g ai/ha) was determined as 0; in [2] (500 g ai/ha), 30. Further, the “Plant response rating, Ryegrass, Italian” value in experiment [3] (125 g ai/ha) and in experiment [3] (500 g ai/ha) was 0 each time. The “Plant response rating, Flood, Rice” value with rice (Oryza sativa) came to 30. For the same compound, the “Plant response rating, Flood, Sedge, Umbrella” value in experiment [4] is on record as 0. Moreover, the “Plant response rating, Wheat” value in [5] (125 g ai/ha) and in experiment [5] (500 g ai/ha) was 0 throughout. Besides, the “Plant response rating, Blackgrass” value turned out to be 0 in experiment [6] (125 g ai/ha) and 30 in [6] (500 g ai/ha). Moreover, the “Plant response rating, Foxtail, Giant” value in experiment [7] (125 g ai/ha) and in experiment [7] (500 g ai/ha) was 0 in each case. In addition, the “Plant response rating, Pigweed” value in [8] (125 g ai/ha) and in experiment [8] (500 g ai/ha) was 0 in each case. In addition, the “Plant response rating, Corn” value with corn (Zea mays) (125 g ai/ha) and in the experiment with corn (Zea mays) (500 g ai/ha) was 0 in each case. Further, the “Plant response rating, Barnyardgrass” value in experiment [9] (125 g ai/ha) stood at 0; in experiment [9] (500 g ai/ha) it was 30. Moreover, the “Plant response rating, Flood, Barnyardgrass” value in experiment [10] worked out at 90. Also, the “Plant response rating, Kochia” value in the experiment with kochia (Kochia scoparia) (125 g ai/ha) and with kochia (Kochia scoparia) (500 g ai/ha) was 0 throughout. In addition, in [11], the “Plant response rating, Flood, Ducksalad” value was 90.

The values above are taken from patent publication US10582709B2, “Butyrolactones as herbicides” (FMC Corporation, priority 2015, dated 2020).
